Experimental data published in US20040009172A1, “Use of anti-TNFalpha antibodies and another drug” (priority 2002, published 2004).

Assays:
[1] = test system: patients with rheumatoid arthritis (RA); experiment: Multicenter, randomized, double-blind, placebo-controlled study of D2E7 in RA patients: safety (adverse events); format: in vivo, human
Description: (§1) A study was designed and conducted to investigate the safety and efficacy of D2E7 40 mg administered every other week to patients with RA whose disease was not adequately treated with their current anti-rheumatic therapies (including accepted DMARDs, NSAIDs, or steroids); and was a multicenter, randomized, double-blind, placebo-controlled study in which D2E7 was subcutaneously (sc) administered every other week for up to 24 weeks at a dosage of 40 mg to patients with rheumatoid arthritis (RA) whose disease was not adequately treated with their current anti-rheumatic therapies. Anti-rheumatic therapies permitted for use during the study included accepted disease-modifying anti-rheumatic drugs (DMARDs), non-steroidal anti-inflammatory drugs (NSAIDs), or steroids. Despite using anti-rheumatic therapies, patients must have had active disease documented at both the screening and baseline visits. Doses of DMARDs, as well as concomitant prednisone (<10 mg daily) and NSAIDs, were required to be stable for at least 28 days prior to screening. Additionally, patients using azathioprine and/or cyclosporine discontinued these therapies and underwent a 28-day washout period before screening. At the baseline visit, patients were randomized to D2E7 or placebo and this signified the start of the 24-week placebo-controlled period. Patients were examined at Weeks 2, 4, 8, 12, 16, 20 and 24 of the study.
D2E7 was supplied in 2-mL glass vials (the concentration of D2E7 in each vial was 25 mg/mL (ie, 40 mg/1.6 mL)), each containing 40 mg D2E7/1.6 mL solution for injection. D2E7 was manufactured and supplied by Ebewe Arzneimittel GmbH, in Unterach, Austria. McKesson, FIBOC Biosciences, in Rockville, Md., USA, packaged, labeled, stored and distributed D2E7 to the investigators at, each site for this study. […]
Adverse events were summarized by frequency, percentage, as well as the rate per 100 patient-years. […] All other efficacy variables were summarized descriptively (statistical characteristics, frequencies, percentages, confidence intervals) and analyzed by exploratory two-sided statistical tests. […]

[2] = test system: patients with rheumatoid arthritis (RA); experiment: Multicenter, randomized, double-blind, placebo-controlled study of D2E7 in RA patients: efficacy (ACR response); format: in vivo, human
Description: as §1
Patients were inadequately treated with their current anti-rheumatic therapies and had active RA, defined as ≧6 swollen joints and ≧9 tender joints. Additionally, patients using glucocorticoids were allowed into the study if the dose was equivalent to ≦10 mg/day prednisone and had remained unchanged for at least 28 days.
D2E7 was supplied in 2-mL glass vials (the concentration of D2E7 in each vial was 25 mg/mL (ie, 40 mg/1.6 mL)), each containing 40 mg D2E7/1.6 mL solution for injection. D2E7 was manufactured and supplied by Ebewe Arzneimittel GmbH, in Unterach, Austria. McKesson, FIBOC Biosciences, in Rockville, Md., USA, packaged, labeled, stored and distributed D2E7 to the investigators at, each site for this study. D2E7 was self-administered as a single sc injection of 40 mg every other week for a period of 24 weeks. The concentration of study drug was 25 mg/mL. Placebo/1.6 mL (citrate-phosphate buffer solution without D2E7) was self-administered as a single sc injection every other week for a period of 24 weeks.
Patients continued to receive their pre-study dose of anti-rheumatic therapies. Anti-rheumatic therapies permitted for use during the study included DMARDs (hydroxychloroquine, leflunomide, methotrexate, parenteral gold, oral gold and sulfasalazine, or any combination of these or other DMARDs), NSAIDs and steroids. Doses of these DMARDs as well as concomitant prednisone (≦10 mg daily) and NSAIDs must have been stable for at least 28 days prior to screening.
Efficacy endpoints included: ACR20 response at Week 24; ACR50 and ACR70 at Week 24; AUC (area under the curve) of ACR20, ACR50 and ACR70 from baseline to Week 24; time to first response for ACR20, ACR50 and ACR70; numeric ACR (ACR-N); change from baseline to Week 24 in components of the ACR response criteria (tender joint count [TJC], swollen joint count [SJC], patient assessment of pain, patient and physician global assessments of disease activity, HAQ and C-reactive protein [CRP]); change from baseline to Week 24 in physical function as measured by SF-36, health utilities index (HUI), functional assessment of chronic illness therapy (FACIT) fatigue scale; Euro-QoL questionnaire; multidimensional assessment of fatigue (MAF) scale; subject summary survey; incidence and time to dose increases in background DMARD and/or steroid therapy; institution of new DMARD therapy for lack of clinical response; rheumatoid factor (RF); and morning stiffness.
Adverse events were summarized by frequency, percentage, as well as the rate per 100 patient-years. […]

[3] = added to existing DMARD therapies
[4] = Non-responder, full analysis set excluding Site #7, N = 315
[5] = Week 2, full analysis set excluding Site #7, N = 315
[6] = Week 4, full analysis set excluding Site #7, N = 315
[7] = Week 8, full analysis set excluding Site #7, N = 315
[8] = Week 12, full analysis set excluding Site #7, N = 315
[9] = Week 16, full analysis set excluding Site #7, N = 315
[10] = Week 20, full analysis set excluding Site #7, N = 315
[11] = Week 24, full analysis set excluding Site #7, N = 315
[12] = Week 24, subgroup Three or more DMARDs
[13] = Week 24, subgroup concomitant Antimalarial
[14] = Week 24, subgroup concomitant Leflunomide
[15] = Week 24, subgroup concomitant Methotrexate
[16] = Week 24, subgroup concomitant Sulfasalazine

Substance: D2E7: recombinant, neutralizing human anti-hTNFα antibody; VL region SEQ ID NO: 1, VH region SEQ ID NO: 2
- Safety ([1]; 40 mg, alone or in combination with other DMARDs): safe
- Incidence or profile of adverse events [1, 3]: not associated with any major changes in the incidence or profile of adverse events
- Tolerability [1, 3]: generally well-tolerated
- ACR50 response, % of patients responding ([2]; LOCF Week 24, N = 315): (30.2) %
- ACR50 response, N of patients responding ([2]; LOCF Week 24, N = 315): 95
- ACR70 response, % of patients responding ([2]; LOCF Week 24, N = 315): (15.2) %
- ACR70 response, N of patients responding ([2]; LOCF Week 24, N = 315): 48
- ACR-N Mean ± SD ([2]; LOCF Week 24, N = 315): 21.2 ± 55.3
- Time to response ACR20: % of patients, Non-responder [2, 4]: (19.4) %
- Time to response ACR20: N of patients, Non-responder [2, 4]: 61
- Time to response ACR50: % of patients, Non-responder [2, 4]: (50.8) %
- Time to response ACR50: N of patients, Non-responder [2, 4]: 160
- Time to response ACR70: % of patients, Non-responder [2, 4]: (73.3) %
- Time to response ACR70: N of patients, Non-responder [2, 4]: 231
- Time to response ACR20: % of patients responding for the first time [2, 5]: (33.7) %
- Time to response ACR20: N of patients responding for the first time [2, 5]: 106
- Time to response ACR50: % of patients responding for the first time [2, 5]: (9.8) %
- Time to response ACR50: N of patients responding for the first time [2, 5]: 31
- Time to response ACR70: % of patients responding for the first time [2, 5]: (2.9) %
- Time to response ACR70: N of patients responding for the first time [2, 5]: 9
- Time to response ACR20: % of patients responding for the first time [2, 6]: (16.2) %
- Time to response ACR20: N of patients responding for the first time [2, 6]: 51
- Time to response ACR50: % of patients responding for the first time [2, 6]: (9.8) %
- Time to response ACR50: N of patients responding for the first time [2, 6]: 31
- Time to response ACR70: % of patients responding for the first time [2, 6]: (3.8) %
- Time to response ACR70: N of patients responding for the first time [2, 6]: 12
- Time to response ACR20: % of patients responding for the first time [2, 7]: (16.5) %
- Time to response ACR20: N of patients responding for the first time [2, 7]: 52
- Time to response ACR50: % of patients responding for the first time [2, 7]: (10.8) %
- Time to response ACR50: N of patients responding for the first time [2, 7]: 34
- Time to response ACR70: % of patients responding for the first time [2, 7]: (3.8) %
- Time to response ACR70: N of patients responding for the first time [2, 7]: 12
- Time to response ACR20: % of patients responding for the first time [2, 8]: (5.4) %
- Time to response ACR20: N of patients responding for the first time [2, 8]: 17
- Time to response ACR50: % of patients responding for the first time [2, 8]: (6.3) %
- Time to response ACR50: N of patients responding for the first time [2, 8]: 20
- Time to response ACR70: % of patients responding for the first time [2, 8]: (5.7) %
- Time to response ACR70: N of patients responding for the first time [2, 8]: 18
- Time to response ACR20: % of patients responding for the first time [2, 9]: (4.1) %
- Time to response ACR20: N of patients responding for the first time [2, 9]: 13
- Time to response ACR50: % of patients responding for the first time [2, 9]: (6.3) %
- Time to response ACR50: N of patients responding for the first time [2, 9]: 20
- Time to response ACR70: % of patients responding for the first time [2, 9]: (5.7) %
- Time to response ACR70: N of patients responding for the first time [2, 9]: 18
- Time to response ACR20: % of patients responding for the first time [2, 10]: (3.8) %
- Time to response ACR20: N of patients responding for the first time [2, 10]: 12
- Time to response ACR50: % of patients responding for the first time [2, 10]: (2.9) %
- Time to response ACR50: N of patients responding for the first time [2, 10]: 9
- Time to response ACR70: % of patients responding for the first time [2, 10]: (2.2) %
- Time to response ACR70: N of patients responding for the first time [2, 10]: 7
- ACR20 response, % of patients ([2]; Week 24, 40 mg sc every other week added to current anti-rheumatic therapies, N = 315): 53.0%
- ACR20 response, N of patients ([2]; Week 24, 40 mg sc every other week, N = 315): 167
- ACR50 response, N of patients responding ([2]; Week 24, N = 315): 92
- ACR70 response, N of patients responding ([2]; Week 24, N = 315): 47
- ACR-N Mean ± SD ([2]; Week 24, N = 315): 20.3 ± 55.2
- Time to response ACR20: % of patients responding for the first time [2, 11]: (1.0) %
- Time to response ACR20: N of patients responding for the first time [2, 11]: 3
- Time to response ACR50: % of patients responding for the first time [2, 11]: (3.2) %
- Time to response ACR50: N of patients responding for the first time [2, 11]: 10
- Time to response ACR70: % of patients responding for the first time [2, 11]: (2.5) %
- Time to response ACR70: N of patients responding for the first time [2, 11]: 8
- ACR20 % Response ([2]; Week 24, subgroup No DMARD): 50.0%
- ACR50 % ([2]; Week 24, subgroup No DMARD): 27.8%
- ACR70 % ([2]; Week 24, subgroup No DMARD): 18.5%
- ACR-N Mean ± SD ([2]; Week 24, subgroup No DMARD): 12.8 ± 68.2
- ACR20 % Response ([2]; Week 24, subgroup One DMARD): 55.4%
- ACR50 % ([2]; Week 24, subgroup One DMARD): 31.0%
- ACR70 % ([2]; Week 24, subgroup One DMARD): 16.3%
- ACR-N Mean ± SD ([2]; Week 24, subgroup One DMARD): 22.8 ± 56.0
- ACR20 % Response ([2]; Week 24, subgroup Other DMARDs): 52.0%
- ACR50 % ([2]; Week 24, subgroup Other DMARDs): 24.0%
- ACR70 % ([2]; Week 24, subgroup Other DMARDs): 16.0%
- ACR-N Mean ± SD ([2]; Week 24, subgroup Other DMARDs): 25.3 ± 33.9
- ACR20 % Response [2, 12]: 45.5%
- ACR50 % [2, 12]: 18.2%
- ACR70 % [2, 12]: 9.1%
- ACR-N Mean ± SD [2, 12]: 20.1 ± 37.2
- ACR20 % Response ([2]; Week 24, subgroup Two DMARDs): 50.0%
- ACR50 % ([2]; Week 24, subgroup Two DMARDs): 27.3%
- ACR70 % ([2]; Week 24, subgroup Two DMARDs): 9.1%
- ACR-N Mean ± SD ([2]; Week 24, subgroup Two DMARDs): 19.5 ± 42.3
- ACR20 % Response [2, 13]: 50.7%
- ACR50 % [2, 13]: 29.3%
- ACR70 % [2, 13]: 12.0%
- ACR-N Mean ± SD [2, 13]: 20.0 ± 45.5
- ACR20 % Response [2, 14]: 33.3%
- ACR50 % [2, 14]: 14.3%
- ACR70 % [2, 14]: 0.0%
- ACR-N Mean ± SD [2, 14]: −0.5 ± 77.5
- ACR20 % Response [2, 15]: 56.7%
- ACR50 % [2, 15]: 30.9%
- ACR70 % [2, 15]: 15.2%
- ACR-N Mean ± SD [2, 15]: 26.5 ± 42.3
- ACR20 % Response [2, 16]: 58.6%
- ACR50 % [2, 16]: 34.5%
- ACR70 % [2, 16]: 17.2%
- ACR-N Mean ± SD [2, 16]: 21.4 ± 53.9
- Subgroup analyses: ACR20, ACR50, ACR70, ACR-N and their AUC ([2]; concomitant methotrexate, antimalarial treatments, sulfasalazine, other DMARDs, or 0, 1, 2, or ≧3 DMARDs, vs placebo): greater improvement
- Response compared to placebo ([2]; in combination with methotrexate, antimalarial treatments, sulfasalazine, other DMARDs, or 0, 1, 2, or ≧3 DMARDs): higher response compared to placebo
- Improvement in RA ([2]; patients inadequately treated with existing DMARD therapies): significant improvement in RA
- Time to response and AUC for ACR20, ACR50, ACR70; AUC for ACR-N; Euro-QoL, RF, MAF scale ([2]; vs placebo): improvement in therapeutic response over placebo
